Our source for the inhibition and LD50 values is patent US4298739A, “Novel carbostyril derivatives” (priority 1977, dated 1981).

For data set [1], the system named is rabbit platelet. The experiment in a line: ADP-induced aggregation in rabbit platelets (AG-II Aggregometer). Type of data set: cell-based. Particulars: Oryctolagus cuniculus, Platelet, read-out: Inhibition effect on ADP-induced aggregation in rabbit platelet; for inhibition at 100 µM (stock): 10^-4 mole; for inhibition at 10 µM (stock): 10^-5 mole; for inhibition at 1 µM (stock): 10^-6 mole. The procedure:
(§1) The platelet aggregation inhibitory effect is measured by using AG-II Aggregometer (manufactured by Bryston Manufacturing Co.). The blood sample used for the test is a 1/9 (by volume) mixture of sodium citrate and whole blood collected from rabbit. Said sample is subjected to 10-minute centrifugal separation at 1,000 r.p.m. to obtain a platelet rich plasma (PRP). The thus obtained PRP is separated, and the remaining blood sample is further subjected to 15-minute centrifugal separation at 3,000 r.p.m. to obtain a platelet poor plasma (PPP).
(§2) The number of platelets in the PRP is counted by the Brecher-Clonkite Method, and the PRP is diluted with the PPP to prepare a PRP sample with platelet concentration of 300,000/mm^3 for the adenosine diphosphate (ADP)-induced aggregation test. There is also prepared a PRP sample with platelet concentration of 450,000/mm^3 for the collagen-induced aggregation test.
(§3) 0.6 ml of said PRP sample is added into 0.01 ml of a solution of a test compound of a predetermined concentration and the mixture is placed in a 37° C. thermostat for one minute. Then 0.07 ml of an ADP or collagen solution is added to the mixture. Transmittance of this mixture is determined and the change of transmittance is recorded by using the aggregometer at stirrer speed of 1,100 r.p.m. In this test, Auren Beronal buffer (pH 7.35) is used for the preparation of the ADP or collagen solution. ADP is adjusted to a concentration of 7.5×10^-5 M, and the collagen solution is prepared by triturating 100 mg of collagen with 5 ml of said buffer and the supernatant is used as collagen inducer. Adenosine and acetylsalicylic acid are used as controls for the ADP-induced aggregation test and the collagen-induced aggregation test, respectively. The platelet aggregation inhibitory effect is measured in terms of percent inhibition with respect to the aggregation rate of the controls. The aggregation rate is calculated from the following formula:
(§4) Aggregation rate=(c-a)/(b-a)×100
(§5) b: transmittance of PRP containing a test compound and an aggregation inducer
(§6) The inhibitory effect of the tested compounds on collagen-induced aggregation in rabbit platelets is shown in Table 1, and such effect on ADP-induced aggregation is shown in Table 2. The compounds tested are as follows.

The nature of data set [2]: Acute toxicity test, oral administration to mice. The class given is in vivo. The conditions noted are these: mouse, in vivo, Male mice. On the procedure: The test compounds were administered orally to the mice and LD50 (mg/kg) of the compounds was determined.
In data set [3] the test system is rabbit platelet. The experiment in a line: Collagen-induced aggregation in rabbit platelets (AG-II Aggregometer). The conditions noted are these: Oryctolagus cuniculus, Platelet, read-out: Inhibition effect on collagen induced aggregation in rabbit platelet; for inhibition at 100 µM (stock): 10^-4 mole; for inhibition at 10 µM (stock): 10^-5 mole; for inhibition at 1 µM (stock): 10^-6 mole. Type of data set: cell-based. The procedure:
as §1, §2, §3, §4, §5, §6

For the compound `O=C(CCCOc1ccc2[nH]c(=O)ccc2c1)NC1CCCCC1` [compound 13, 6-[3-(N-Cyclohexylaminocarbonyl)propoxy]carbostyril], in the data set on rabbit platelet [1], the inhibition at 100 µM (stock) is 39.6%, the inhibition at 10 µM (stock) was 24.8% and the inhibition at 1 µM (stock) was 18%. In data set [2], this compound registered an LD50 of more than 1000 mg/kg. Further, in the data set with rabbit platelet [3], the inhibition at 100 µM (stock) was 87.5%, the inhibition at 10 µM (stock) is 45.8% and the inhibition at 1 µM (stock) is 23.3%.
Consider `C=CCN(C(=O)CCCOc1ccc2c(c1)CCC(=O)N2)C1CCCCC1` [compound 14, 6-[3-(N-Allyl-N-cyclohexylaminocarbonyl)propoxy]-3,4-dihydrocarbostyril], for which, in the data set on rabbit platelet [1], the inhibition at 100 µM (stock) came to 41.3%, the inhibition at 10 µM (stock) is 25.7% and the inhibition at 1 µM (stock) was found to be 15.1%. The compound also had a median lethal dose (LD50) in data set [2] of more than 1000 mg/kg. Also, in the data set with rabbit platelet [3], the inhibition at 100 µM (stock) was 82.4%, the inhibition at 10 µM (stock) amounted to 42.3% and the inhibition at 1 µM (stock) was determined as 15.7%.
With `CN(C(=O)CCCOc1ccc2c(c1)CCC(=O)N2)C1CCCCC1` [compound 15, 6-[3-(N-Methyl-N-cyclohexylaminocarbonyl)propoxy]-3,4-dihydrocarbostyril], in the data set on rabbit platelet [1], the inhibition at 100 µM (stock) worked out at 88.3%, the inhibition at 10 µM (stock) stood at 26.8% and the inhibition at 1 µM (stock) came out at 10.8%. The same compound gave a 50% lethal dose (LD50) in data set [2] of more than 1000 mg/kg. In the data set with rabbit platelet [3], the inhibition at 100 µM (stock) stood at 94%, the inhibition at 10 µM (stock) was 92.6% and the inhibition at 1 µM (stock) amounted to 34.1%.
Turning to `O=C(CCCOc1ccc2[nH]c(=O)ccc2c1)N(c1ccccc1)C1CCCCC1` [compound 17, 6-[3-(N-Cyclohexylanilinocarbonyl)propoxy]carbostyril], in the data set with rabbit platelet [1], the inhibition at 100 µM (stock) worked out at 82.5%, the inhibition at 10 µM (stock) is 38.7% and the inhibition at 1 µM (stock) was found to be 12.3%. The compound further had an LD50 in data set [2] of more than 1000 mg/kg. Moreover, in the data set with rabbit platelet [3], the inhibition at 100 µM (stock) turned out to be 91.5%, the inhibition at 10 µM (stock) was determined as 53.8% and the inhibition at 1 µM (stock) worked out at 16.7%.
For the compound `O=C(CCCOc1ccc2c(c1)CCC(=O)N2)Nc1ccccc1` [compound 19, 6-[3-(Anilinocarbonyl)propoxy]-3,4-dihydrocarbostyril], in the data set on rabbit platelet [1], the inhibition at 100 µM (stock) was 24.6% and the inhibition at 10 µM (stock) was found to be 16.2%. In data set [2], this compound had an LD50 of more than 1000 mg/kg. In addition, in the data set on rabbit platelet [3], the inhibition at 100 µM (stock) was 93.8% and the inhibition at 10 µM (stock) was 17.4%.
On to `CCCCN(C(=O)CCCCOc1ccc2c(c1)CCC(=O)N2)C1CCCCC1` [compound 22, 6-[4-(N-Butyl-N-cyclohexylaminocarbonyl)buthoxy]-3,4-dihydrocarbostyril], for which, in the data set on rabbit platelet [1], the inhibition at 100 µM (stock) came to 71.5%, the inhibition at 10 µM (stock) worked out at 32.7% and the inhibition at 1 µM (stock) turned out to be 10.5%. The LD50 in data set [2] was more than 1000 mg/kg. Besides, in the data set on rabbit platelet [3], the inhibition at 100 µM (stock) was found to be 85.6%, the inhibition at 10 µM (stock) was 78.5% and the inhibition at 1 µM (stock) is 28.7%.
As to `O=C1CCc2cc(OCCCC(=O)N(c3ccccc3)c3ccccc3)ccc2N1` [compound 24, 6-[3-(N,N-Diphenylaminocarbonyl)propoxy]-3,4-dihydrocarbostyril], in the data set with rabbit platelet [1], the inhibition at 100 µM (stock) is 43.2%, the inhibition at 10 µM (stock) was determined as 22.3% and the inhibition at 1 µM (stock) is 13.4%. Further, the median lethal dose (LD50) in data set [2] was more than 1000 mg/kg. In the data set with rabbit platelet [3], the inhibition at 100 µM (stock) was determined as 82.7%, the inhibition at 10 µM (stock) was found to be 43.5% and the inhibition at 1 µM (stock) was determined as 15.5%.
For `CC(C)(Oc1ccc2c(c1)CCC(=O)N2)C(=O)O` [compound 38, 6-(1-Methyl-1-carboxyethoxy)-3,4-dihydrocarbostyril, reference compound], in the data set on rabbit platelet [1], the inhibition at 100 µM (stock) was 10%, the inhibition at 10 µM (stock) came to 5% and the inhibition at 1 µM (stock) came to 3%. Moreover, in data set [2], the 50% lethal dose (LD50) was in the range of 800 to 1000 mg/kg. In the data set on rabbit platelet [3], the inhibition at 100 µM (stock) was determined as 5%, the inhibition at 10 µM (stock) came out at 3% and the inhibition at 1 µM (stock) came to 0%.
For `O=C(O)CCCOc1ccc2[nH]c(=O)ccc2c1` [compound 39, 6-(3-Carboxypropoxy)carbostyril, reference compound], in the data set on rabbit platelet [1], the inhibition at 100 µM (stock) was determined as 52%, the inhibition at 10 µM (stock) was found to be 23% and the inhibition at 1 µM (stock) worked out at 5%. The compound further showed an LD50 in data set [2] of more than 1000 mg/kg. In the data set with rabbit platelet [3], the inhibition at 100 µM (stock) was determined as 28%, the inhibition at 10 µM (stock) worked out at 15% and the inhibition at 1 µM (stock) came out at 0%.
Consider `O=C1CCc2cc(OCCCC(=O)OC3CCCCC3)ccc2N1` [compound 40, 6-(3-Cyclohexyloxycarbonylpropoxy)-3,4-dihydrocarbostyril, reference compound], for which, in the data set with rabbit platelet [1], the inhibition at 100 µM (stock) came out at 28%, the inhibition at 10 µM (stock) is 16% and the inhibition at 1 µM (stock) was 7%. Further, in data set [2], the LD50 lay in the range of 500 to 800 mg/kg. Also, in the data set on rabbit platelet [3], the inhibition at 100 µM (stock) came to 12%, the inhibition at 10 µM (stock) worked out at 8% and the inhibition at 1 µM (stock) came to 0%.
As for `CC(C)NC(=O)CCOc1cccc2c1CCC(=O)N2` [compound 41, 5-(N-Isopropylaminocarbonylethoxy)-3,4-dihydrocarbostyril, reference compound], in the data set with rabbit platelet [1], the inhibition at 100 µM (stock) came to 18%, the inhibition at 10 µM (stock) was found to be 13% and the inhibition at 1 µM (stock) is 7%. The same compound gave a 50% lethal dose (LD50) in data set [2] of 500 to 800 mg/kg. In the data set on rabbit platelet [3], the inhibition at 100 µM (stock) amounted to 17% and the inhibition at 1 µM (stock) is 0%.
For `O=C1CCc2c(cccc2OCC(=O)N2CCOCC2)N1` [compound 42, 5-(Morpholinocarbonylmethoxy)-3,4-dihydrocarbostyril, reference compound], in the data set with rabbit platelet [1], the inhibition at 100 µM (stock) is 13%, the inhibition at 10 µM (stock) stood at 6% and the inhibition at 1 µM (stock) was found to be 0%. The LD50 in data set [2] lay within 400 to 600 mg/kg. In the data set on rabbit platelet [3], the inhibition at 100 µM (stock) amounted to 5%, the inhibition at 10 µM (stock) is 0% and the inhibition at 1 µM (stock) was found to be 0%.
As for `CN(C)C(=O)COc1cccc2c1CCC(=O)N2` [compound 43, 5-(N,N-dimethylaminocarbonylmethoxy)-3,4-dihydrocarbostyril, reference compound], in the data set with rabbit platelet [1], the inhibition at 100 µM (stock) amounted to 22%, the inhibition at 10 µM (stock) turned out to be 17% and the inhibition at 1 µM (stock) was determined as 8%. Further, in data set [2], the 50% lethal dose (LD50) fell in the range of 500 to 700 mg/kg. Moreover, in the data set on rabbit platelet [3], the inhibition at 100 µM (stock) stood at 27%, the inhibition at 10 µM (stock) is 13% and the inhibition at 1 µM (stock) turned out to be 0%.
Take `CCN1C(=O)CCc2c(OCCCC(=O)NCc3ccccc3)cccc21` [compound 44, 1-Ethyl-5-[3-(N-benzylaminocarbonyl)propoxy]-3,4-dihydrocarbostyril, reference compound]: in the data set with rabbit platelet [1], the inhibition at 100 µM (stock) is 14%, the inhibition at 10 µM (stock) was found to be 6% and the inhibition at 1 µM (stock) is 0%. This compound gave an LD50 in data set [2] of 500 to 600 mg/kg. Also, in the data set on rabbit platelet [3], the inhibition at 100 µM (stock) is 7%, the inhibition at 10 µM (stock) amounted to 0% and the inhibition at 1 µM (stock) amounted to 0%.
`CCCNC(=O)CC(C)COc1ccc2c(c1)CCC(=O)N2` (stereo not drawn) [compound 45, 6-[3-(N-Propylaminocarbonyl)-2-methylpropoxy]-3,4-dihydrocarbostyril, reference compound]: in the data set with rabbit platelet [1], the inhibition at 100 µM (stock) was determined as 32%, the inhibition at 10 µM (stock) came out at 17% and the inhibition at 1 µM (stock) stood at 9%. In addition, the LD50 in data set [2] lay in the range of 500 to 800 mg/kg. Further, in the data set with rabbit platelet [3], the inhibition at 100 µM (stock) turned out to be 12%, the inhibition at 10 µM (stock) stood at 5% and the inhibition at 1 µM (stock) was 0%.

The inhibition is the change of the read-out against control, counted positive when it falls. What is called LD50 is the dose expected to kill half of the subjects tested. A higher LD50 goes with lower toxicity.
